Data taken from patent US20180049996A1, “THERAPEUTIC AGENT FOR CHRONIC RESPIRATORY DISEASE AND COMPOSITION FOR INHIBITING CARDIAC FIBROSIS” (NIPPON HYPOX LABORATORIES INCORPORATED, priority 2015, published 2018).

How the values were obtained:
sputum excretion = assay: Sputum excretion action (phenol red excretion from trachea sections, method of Engler et al.); format: in vivo, male ICR mice; conditions: ambroxol 250 mg/kg oral single dose; relative to negative control; significant increase
Description: The hydroquinone derivative of the present invention was orally administered to 8 week old male ICR mice in a single dose, and the sputum excretion action was evaluated according to the method of Engler et al. (Engler H, Szelenyi I, J.Pharmacol. Moth. 11, 151-157, 1984).
Specifically, the test was conducted as follows. The test material was orally administered to the mice in the control group and the test groups, i.e., an aqueous solution of 2% gum arabic was administered to the mice in the negative control group, and 2,3,5-trimethylhydroquinone-1-hexyl ether (HTHQ), the test substance, was orally administered to the mice in the HTHQ-administered groups at 100 mg/kg body weight, 200 mg/kg body weight and 400 mg/kg body weight, respectively. Ambroxol (a product from Sigma-Aldrich) was orally administered to the mice in the ambroxol administered group at 250 mg/kg body weight. Here, ambroxol is a substance having expectoration action and has been selected as a positive control substance. 30 minutes after the oral administration of the test material, saline in which phenol red (a product from Sigma-Aldrich) was dissolved at a concentration of 0.05 g/mL was intraperitoneally administered at 15 mL/kg. Then, 30 minutes after the administration of phenol red, the mice were euthanized by inhalation of carbon dioxide, and the tracheae were extirpated. Given sites of the extirpated tracheae were cut into sections of fixed size to obtain trachea sections. The obtained trachea sections were added to centrifugation tubes, and 1 mL of saline was added there, and the mixture was sonicated using a ultrasonic washing machine for 15 minutes. After the centrifugation of 5 minutes at 10000 rpm, 0.5 mL of a upper layer solution was dispensed to the centrifugation tubes and 0.05 mL of 1 N sodium hydroxide was added to the tubes. After stirring with a vortex mixer, 0.2 mL of a sample was dispensed to a 96 well plate, and absorbance was measured at 546 nm using a micro plate reader (a product from BioTek Instruments, Inc). The amounts of phenol red excreted from the trachea sections of the mice in the control group and test groups were calculated by extrapolating the measured absorbance to the standard curve based on the absorbance of phenol red reference standard ([…], 2.3 and 1.2 ng/mL). The amounts of phenol red excreted from the trachea sections were substituted in the following formula to calculate the sputum excretion ability of the test material. The formula to calculate the sputum excretion ability is as follows: “sputum excretion ability(%)={(A/B)−1}×100” wherein A is the amounts of phenol red of the test material administered groups (an average) and B is the amount of phenol red of the negative control group (an average).

[1] = system: Pulmonary Fibrosis Induced by Bleomycin; assay: Bronchoalveolar lavage (BAL) examination, cell numbers, pulmonary fibrosis induced by bleomycin; format: in vivo, male SD rats
Description: (§1) Bleomycin is used to produce disease-model animals of interstitial pneumonia. The bleomycin and 2,3,5-trimethylhydroquinone-1-hexyl ether (HTHQ) as the hydroquinone derivative represented by the general formula (1) described above of the present invention were simultaneously administered to male SD rats of 10 week old after birth to examine the effect of the action. The test groups consisted of the control group to which sterile saline was administered; test group 1 to which bleomycin (7.5 mg/kg body weight) alone was administered; test group 2 to which bleomycin (7.5 mg/kg body weight) and HTHQ (50 mg/kg body weight/day) were administered in combination; and test group 3 to which bleomycin (7.5 mg/kg body weight) and HTHQ (200 mg/kg body weight/day) were administered in combination.
(§2) In test groups 1 to 3, bleomycin was orally administered in a single dose. In test groups 2 and 3, 2,3,5-trimethylhydroquinone-1-hexyl ether (HTHQ) was daily orally administered for 10 or 20 days starting from 24 h after the administration of bleomycin. In test group 1, olive oil, which was used as a solvent of HTHQ, was daily orally administered at 10 mL/kg/day starting from 24 h after the administration of bleomycin. The number of animals in each group was 16. 8 animals of each group were sacrificed on days 10 and 20 after the administration of bleomycin and measurement of body weight, lung autopsy, histopathologic examination of lungs and bronchoalveolar lavage examination were conducted.
Bronchoalveolar lavage (BAL) examination was conducted on the rats in the control group and the test groups. When interstitial pneumonia developed, the infiltration of inflammatory cells occurs and thus the total cell number in BAL fluid increases. The total cell numbers on day 10 after the administration of bleomycin were as follows: 2×10^5 cells in the control group, 9×10^5 cells in test group 1 (the bleomycin-single administration group), 6.5×10^5 cells in test group 2 (the low-dose HTHQ-administered group, 50 mg/kg body weight), and 10.5×10^5 cells in test group 3 (the high-dose HTHQ-administered group, 200 mg/kg body weight), and thus the effect of HTHQ administration was not found on day 10 after the administration of bleomycin.
When interstitial pneumonia developed, the infiltration of alveolar macrophages to interstitial tissue occurs and thus the alveolar macrophage number in BAL fluid increases. The alveolar macrophage numbers on day 10 after the administration of bleomycin were as follows: 1.45×10^5 cells in the control group, 4.5×10^5 cells in test group 1 (the bleomycin-single administration group), 1.99×10^5 cells in test group 2 (the low-dose HTHQ-administered group), and 3.24×10^5 cells in test group 3 (the high-dose HTHQ-administered group), and thus the effect of HTHQ administration was not found on day 10 after the administration of bleomycin. However, on day 20 after the administration, while the alveolar macrophage number of the bleomycin-single administration group was 5.5×10^5 cells, the alveolar macrophage number of the low-dose HTHQ-administered group was 3×10^5 cells and the alveolar macrophage number of the high-dose HTHQ-administered group was decreased to 2×10^5 cells.
When interstitial pneumonia developed, the infiltration of inflammatory cells of neutrophils to interstitial tissue occurs and thus the neutrophil number in BAL fluid increases. The neutrophil numbers on day 10 after the administration of bleomycin were as follows: 1.04×10^4 cells in the control group, 2.28×10^5 cells in test group 1 (the bleomycin-single administration group), 1.44×10^5 cells in test group 2 (the low-dose HTHQ-administered group), and 5.83×10^5 cells in test group 3 (the high-dose HTHQ-administered group), and thus the effect of HTHQ was not found on day 10 after the administration of bleomycin. […]

[2] = system: Pulmonary Fibrosis Induced by Bleomycin; assay: Histopathologic examination of lungs, pulmonary fibrosis induced by bleomycin; format: in vivo, male SD rats; conditions: Test group 1: bleomycin 7.5 mg/kg alone
Description: as §1, §2
The main lung lesions observed in the rats in test group 1 (the bleomycin-single administration group) on day 10 after the administration were the peribronchial and peribronchiola enlargement of alveoli, the hyperplasia of the alveolar wall, the infiltration of monocytes and lymphocytes in alveolar walls and interstitial tissue, and the exudation of alveolar macrophage into alveolar spaces. These lesions were alleviated in rats in test groups 2 and 3 (the HTHQ-administered groups) compared to the tissue in test group 1.
The result of the histopathologic examination of lungs of the control group and the test groups on day 20 after the administration of bleomycin is shown in Table 1 below. “−” indicates “not found”, “+” indicates “mild”, “++” indicates “moderate”, and “+++” indicates “severe” in severity scores. In test group 1 (the bleomycin-single administration group), the hyperplasia and fibrosis of peribronchial and adjacent alveolar walls became remarkable compared to the tissue on day 10 after the administration and the morphology of alveolus almost disappeared due to the infiltration of lymphocytes and neutrophils. The alveolar macrophages infiltrated within alveolar spaces were buried in surrounding tissues.

[3] = system: Pulmonary Fibrosis Induced by Bleomycin; assay: Body weight and relative weight of lungs, pulmonary fibrosis induced by bleomycin; format: in vivo, male SD rats
Description: as §1, §2
The body weight of the rats in the control group increased over time during the test period. […] The weight of the interstitial tissue of lungs tends to increase and the relative weight of lungs tends to rise when the tissue fibroses. […] Thus, it was expected that the degree of the progression of pulmonary fibrosis of the rats in test groups 2 and 3, to which HTHQ was administered, was less than the rats in test group 1.

[4] = system: Pulmonary Fibrosis Induced by Bleomycin; assay: Gross pathology of lungs, pulmonary fibrosis induced by bleomycin; format: in vivo, male SD rats; conditions: Test group 1: bleomycin 7.5 mg/kg alone; day 20
Description: as §1
as §2, with “8 animals of each group were sacrificed on days 10 and 20 after the administration of bleomycin and measurement of body weight, lung autopsy, histopathologic examination of lungs and bronchoalveolar lavage examination were conducted.” left out

[5] = Test group 1: bleomycin 7.5 mg/kg alone, day 10
[6] = bleomycin 7.5 mg/kg alone, day 20

Compound: Nc1c(Br)cc(Br)cc1CN[C@H]1CC[C@H](O)CC1 [ambroxol, Ambroxol, reference compound]
- sputum excretion ability (sputum excretion): 41.1%

Compound: bleomycin [reference compound]
- alveolar macrophage number in BAL fluid [1, 5]: 4.5×10^5 cells
- lymphocyte number in BAL fluid [1, 5]: 2.72×10^5 cells
- neutrophil number in BAL fluid [1, 5]: 2.28×10^5 cells
- total cell number in BAL fluid [1, 5]: 9×10^5 cells
- alveolar macrophage number in BAL fluid [1, 6]: 5.5×10^5 cells
- lymphocyte number in BAL fluid [1, 6]: 2.09×10^5 cells
- neutrophil number in BAL fluid [1, 6]: 4.97×10^5 cells
- total cell number in BAL fluid [1, 6]: 12.8×10^5 cells
- histopathologic findings of lungs ([2]; day 10): pulmonary fibrosis has progressed
- Severity score: Alveolar space, Bleeding ([2]; day 20 after bleomycin): +
- Severity score: Alveolar space, Macrophage accumulation ([2]; day 20 after bleomycin): +++
- Severity score: Alveolar space, Protein exudation ([2]; day 20 after bleomycin): +++
- Severity score: Alveolar wall, Fibroblast accumulation ([2]; day 20 after bleomycin): +++
- Severity score: Alveolar wall, Fibrosis of interstitial tissue ([2]; day 20 after bleomycin): +++
- Severity score: Alveolar wall, Interstitial edema ([2]; day 20 after bleomycin): +
- Severity score: Alveolar wall, Mononuclear cell infiltration ([2]; day 20 after bleomycin): +++
- Severity score: Circumvascular region, Perivascular edema ([2]; day 20 after bleomycin): +
- Severity score: Circumvascular region, Plasma cell infiltration ([2]; day 20 after bleomycin): +
- Severity score: Peribronchial and peribronchiolar regions, Fibrosis of interstitial tissue ([2]; day 20 after bleomycin): +++
- Severity score: Peribronchial and peribronchiolar regions, Lymphoid follicle hyperplasia ([2]; day 20 after bleomycin): ++
- Severity score: Type II alveolar epithelial cell, Adenomatous hyperplasia ([2]; day 20 after bleomycin): ++
- Severity score: Type II alveolar epithelial cell, Atypia and dysplasia ([2]; day 20 after bleomycin): ++
- body weight ([3]; test groups 1 to 3, bleomycin 7.5 mg/kg single dose, during the test period): gradually decreased
- relative weight of lungs ([3]; test groups 1 to 3, bleomycin 7.5 mg/kg, compared to the control group, p<0.01): significantly increased
- gross pathology of lungs [4]: delomorphous nodules as well as many dark red and light red ecchymoses were observed
